The test system of assay [1] is STING pathway (IRF pathway reporter, THP1-Dual cells). Kind of assay: STING pathway activation, IRF pathway secreted luciferase (Lucia) reporter in THP1-Dual cells. It counts as cell-based. As to conditions: Quanti LUC luminescence, 24-hour and 48-hour plates prepared, duration not given, read-out: IRF3 (EC50 μM). The method, then:
(§1) STING pathway activation by the compounds described herein was measured using THP1-Dual™ cells. These cells are THP1 monocytes that have been modified to be reporters for the NF[…]B pathway (by inducing secreted embryonic alkaline phosphatase (SEAP) expression) and the IRF pathway (by inducing secreted luciferase (LUCIA)). Both of these pathways are activated by STING agonists in these cells.
(§2) THP1 Dual™ cells (obtained from Invivogen) are maintained in a cell growth medium that includes Roswell Park Memorial Institute medium (RPMI), 10% fetal calf serum (FCS), 100 U/ml Pen/Strep, 2 mM L-glut, 10 mM Hepes, and 1 mM sodium pyruvate. Prior to the assay, the cells were transferred to an assay medium that includes is RPMI, 5% FCS, 100 U/ml Pen/Strep, 2 mM L-glut, 10 mM Hepes, and 1 mM sodium pyruvate. Cells were then counted and evaluated for viability by trypan blue exclusion assay.
(§3) Compounds were dissolved in water or DMSO depending, for example, on their solubility in water or DMSO. The compounds are then diluted in the assay medium and plated into wells of a 384-well tissue culture plate in […] portions. Cells are then added in […] assay medium to result in a final cell concentration of 80,000 cells per well.
(§4) For each set of compounds, two plates were prepared: one plate that was subjected to a 24-hour assay duration, and one plate that was subjected to a 48-hour assay duration. The plates are incubated during their respective assay durations at 37° C., with 5% CO2.
(§5) To carry out the secreted embryonic alkaline phosphatase reporter, 10 µL of cell supernatant was mixed with 90 μL of QUANTI-Blue in a flat-bottom 384 well plate. The plates were incubated at 37′C for 1-2 hours. SEAP activity was measured using a spectrophotometer set at 620 nm. In the secreted luciferase (i.e., Lucia) assay, 10 µL of THP1-Blue™ WASG cell supernatant was plated, then 50 μL Quanti LUC Solution was added. Luminescence of the wells was then measured.

Assay [2] deals with STING pathway (NFκB pathway reporter, THP1-Dual cells). Put plainly: STING pathway activation, NFκB pathway secreted embryonic alkaline phosphatase (SEAP) reporter in THP1-Dual cells. The format is cell-based. As to conditions: QUANTI-Blue, 620 nm, 24-hour and 48-hour plates prepared, duration not given. On the procedure: as §1, §2, §3, §4, §5

Like-named read-outs stand apart in the source and are kept apart here.

The term EC50 denotes the concentration that produces a half-maximal response. As to `Nc1ncnc2c1ncn2[C@@H]1O[C@@H]2COP(=O)(S)N[C@H]3[C@@H](O)[C@H](n4cnc5c(N)ncnc54)O[C@@H]3COP(=O)(S)N[C@H]2[C@H]1O` (single isomer, unassigned) [Compound 74-0A1], the EC50 in assay [1] and in assay [2] was 1 to 10 µM in each case.

Take `Nc1ncnc2c1ncn2[C@@H]1O[C@@H]2COP(=O)(S)N[C@H]3[C@@H](O)[C@H](n4cnc5c(N)ncnc54)O[C@@H]3COP(=O)(S)N[C@H]2[C@H]1O` (single isomer, unassigned) [Compound 74-0A2]: the EC50 in assay [1] was 1 to 10 µM; in assay [2] it was under 1 µM.

Turning to `Nc1ncnc2c1ncn2[C@@H]1O[C@@H]2COP(=O)(S)N[C@H]3[C@@H](O)[C@H](n4cnc5c(N)ncnc54)O[C@@H]3COP(=O)(O)N[C@H]2[C@H]1O` (single isomer, unassigned) [Compound 74-0B0], the EC50 in assay [1] (Homo sapiens, THP1-Dual) lay in the range of 10 to 49 µM; in assay [2] (Homo sapiens, THP1-Dual), 10 to 49 µM.

Regarding `Nc1ncnc2c1ncn2[C@@H]1O[C@@H]2COP(=O)(S)N[C@H]3[C@@H](O)[C@H](n4cnc5c(N)ncnc54)O[C@@H]3COP(=O)(S)N[C@H]2[C@H]1O` (single isomer, unassigned) [Compound 74-0B1], the EC50 in assay [1] lay within 10 to 49 µM; in assay [2], 50 to 100 µM.

For the compound `Nc1nc2c(ncn2[C@@H]2O[C@@H]3COP(=O)(S)N[C@H]4[C@@H](O)[C@H](n5cnc6c(=O)[nH]c(N)nc65)O[C@@H]4COP(=O)(O)N[C@H]3[C@H]2O)c(=O)[nH]1` (single isomer, unassigned) [Compound 76-0A1], the EC50 lay in the range of 10 to 49 µM in assay [1] (Homo sapiens, THP1-Dual) and 1 to 10 µM in assay [2] (Homo sapiens, THP1-Dual).

For the compound `Nc1nc2c(ncn2[C@@H]2O[C@@H]3COP(=O)(S)N[C@H]4[C@@H](O)[C@H](n5cnc6c(=O)[nH]c(N)nc65)O[C@@H]4COP(=O)(S)N[C@H]3[C@H]2O)c(=O)[nH]1` (single isomer, unassigned) [Compound 76-0A2], the EC50 in assay [1] and in assay [2] was 10 to 49 µM in each case.

As for `Nc1nc2c(ncn2[C@@H]2O[C@@H]3COP(=O)(S)N[C@H]4[C@@H](O)[C@H](n5cnc6c(=O)[nH]c(N)nc65)O[C@@H]4COP(=O)(S)N[C@H]3[C@H]2O)c(=O)[nH]1` (single isomer, unassigned) [Compound 76-0A3], the EC50 is 1 to 10 µM in assay [1] and under 1 µM in assay [2].

On to `Nc1nc2c(ncn2[C@@H]2O[C@@H]3COP(=O)(S)N[C@H]4[C@@H](O)[C@H](n5cnc6c(=O)[nH]c(N)nc65)O[C@@H]4COP(=O)(S)N[C@H]3[C@H]2O)c(=O)[nH]1` (single isomer, unassigned) [Compound 76-0B1], for which the values for the EC50 in assay [1] and in assay [2] were 10 to 49 µM and 50 to 100 µM, respectively.

`Nc1ncnc2c1ncn2[C@@H]1O[C@@H]2COP(=O)(O)N[C@H]3[C@@H](O)[C@H](n4cnc5c(N)ncnc54)O[C@@H]3COP(=O)(O)N[C@H]2[C@H]1O` [Compound 73, Diammonium (1S,6S,8R,9R,10S,15S,17R,18R)-8,17-bis(6-amino-9H-purin-9-yl)-9,18-dihydroxy-3,12-dioxo-4,7,13,16-tetraoxa-2,11-diaza-3λ^s,12λ^s-diphosphatricyclo[13.3.0.0^6,10]octadecane-3,12-bis(olate)]: the EC50 was 10 to 49 µM in assay [1] (Homo sapiens, THP1-Dual) and 1 to 10 µM in assay [2] (Homo sapiens, THP1-Dual).

As for `Nc1nc2c(ncn2[C@@H]2O[C@@H]3COP(=O)(O)N[C@H]4[C@@H](O)[C@H](n5cnc6c(=O)[nH]c(N)nc65)O[C@@H]4COP(=O)(O)N[C@H]3[C@H]2O)c(=O)[nH]1` [Compound 75, Diammonium (1S,6S,8R,9R,10S,15S,17R,18R)-8,17-bis(2-amino-6-oxo-6,9-dihydro-1H-purin-9-yl)-9,18-dihydroxy-3,12-dioxo-4,7,13,16-tetraoxa-2,11-diaza-3λ^s,12λ^s-diphosphatricyclo[13.3.0.0^6,10]octadecane-3,12-bis(olate)], the EC50 in assay [1] (Homo sapiens, THP1-Dual) lay within 10 to 49 µM; in assay [2] (Homo sapiens, THP1-Dual) it was 10 to 49 µM.

With `Nc1ncnc2c1ncn2[C@@H]1O[C@@H]2CNP(=O)(S)O[C@H]3[C@@H](F)[C@H](n4cnc5c(N)ncnc54)O[C@@H]3CNP(=O)(S)O[C@H]2[C@H]1F` (stereo partly drawn) [Compound 77, Diammonium [(1R,6R,8R,9R,10R,15R,17R,18R)-8,17-bis(6-amino-9H-purin-9-yl)-9,18-difluoro-3,12-dioxo-12-sulfanidyl-2,7,11,16-tetraoxa-4,13-diaza-3λ^s,12λ^s-diphosphatricyclo[13.3.0.0^6,10]octadecan-3-yl]sulfanide], the EC50 in assay [1] (Homo sapiens) and in assay [2] (Homo sapiens) was 50 to 100 µM each time.

With `Nc1ncnc2c1ncn2[C@@H]1O[C@@H]2COP(=O)(O)N[C@H]3[C@@H](F)[C@H](n4cnc5c(N)ncnc54)O[C@@H]3COP(=O)(O)N[C@H]2[C@H]1F` [Compound 78, Diammonium (1R,6S,8R,9R,10R,15S,17R,18R)-8,17-bis(6-amino-9H-purin-9-yl)-9,18-difluoro-3,12-dioxo-4,7,13,16-tetraoxa-2,11-diaza-3λ^s,12λ^s-diphosphatricyclo[13.3.0.0^6,10]octadecane-3,12-bis(olate)], the EC50 fell in the range of 50 to 100 µM in assay [1] (Homo sapiens, THP1-Dual) and 50 to 100 µM in assay [2] (Homo sapiens, THP1-Dual).

Take “Diammonium [(1S,6S,8R,9R,10S,15S,17R,18R)-8-(2-amino-6-oxo-6,9-dihydro-1H-purin-9-yl)-17-(6-amino-9H-purin-9-yl)-9,18-dihydroxy-3,12-dioxo-12-sulfanidyl-4,7,13,16-tetraoxa-2,11-diaza-3λ^s,12λ^s-diphosphatricyclo[13.3.0.0^6,10]octadecan-3-yl]sulfanide [Compound 72-0A2]”: the EC50 in assay [1] and in assay [2] was 1 to 10 µM each time.

Take “Diammonium [(1S,6S,8R,9R,10S,15S,17R,18R)-8-(2-amino-6-oxo-6,9-dihydro-1H-purin-9-yl)-17-(6-amino-9H-purin-9-yl)-9,18-dihydroxy-3,12-dioxo-12-sulfanidyl-4,7,13,16-tetraoxa-2,11-diaza-3λ^s,12λ^s-diphosphatricyclo[13.3.0.0^6,10]octadecan-3-yl]sulfanide [Compound 72-0A3]”: the figures for the EC50 in assay [1] and in assay [2] were 1 to 10 µM and under 1 µM, respectively.

On to “Diammonium [(1S,6S,8R,9R,10S,15S,17R,18R)-8-(2-amino-6-oxo-6,9-dihydro-1H-purin-9-yl)-17-(6-amino-9H-purin-9-yl)-9,18-dihydroxy-3,12-dioxo-12-sulfanidyl-4,7,13,16-tetraoxa-2,11-diaza-3λ^s,12λ^s-diphosphatricyclo[13.3.0.0^6,10]octadecan-3-yl]sulfanide [Compound 72-0B1]”, for which the EC50 in assay [1] is 1 to 10 µM; in assay [2] it was 50 to 100 µM.

For “Diammonium [(1S,6S,8R,9R,10S,15S,17R,18R)-8-(2-amino-6-oxo-6,9-dihydro-1H-purin-9-yl)-17-(6-amino-9H-purin-9-yl)-9,18-dihydroxy-3,12-dioxo-12-sulfanidyl-4,7,13,16-tetraoxa-2,11-diaza-3λ^s,12λ^s-diphosphatricyclo[13.3.0.0^6,10]octadecan-3-yl]sulfanide [Compound 72-0B2]”, the EC50 in assay [1] and in assay [2] was 10 to 49 µM throughout.

Source of the values: patent publication US10961270B2, “Compounds and compositions for treating conditions associated with sting activity” (Innate Tumor Immunity, Inc., priority 2016, dated 2021).
